This note sets out measurements from ChEMBL document CHEMBL1121920, “Synthesis and biological evaluation of the methyl esters of (+)-12-fluoro-13,14-dihydroprostaglandin F2alpha and (+)-15-epi-12-fluoro-13,14-dihydroprostaglandin F2alpha” (1981).

The subject of one experiment is Cricetinae gen. sp. Kind of experiment: Compound was evaluated for uterine contraction relative to PGF2-alpha in hamsters. The experiment is classed as functional, hamster.
The test system of another experiment is Gerbillinae. Description: Compound was evaluated for gerbil colon contraction relative to PGF2-alpha. The experiment is classed as functional.

With `CCCCC[C@H](O)CC[C@@]1(F)[C@H](O)C[C@H](O)[C@@H]1C/C=C\CCCC(=O)OC`, the Potency in the experiment with Cricetinae gen. sp. was 0.016; with Gerbillinae, 0.004.

As for `CCCCC[C@@H](O)CC[C@@]1(F)[C@H](O)C[C@H](O)[C@@H]1C/C=C\CCCC(=O)OC`, the Potency turned out to be 0.005 with Cricetinae gen. sp. and 0.001 in the experiment with Gerbillinae.

On to `CCCCC[C@H](O)CC[C@@H]1[C@@H](C/C=C\CCCC(=O)OC)[C@@H](O)C[C@H]1O`, for which the Potency in the experiment on Cricetinae gen. sp. was determined as 0.95; in the experiment on Gerbillinae it was 0.11.

`CCCCC[C@H](O)/C=C/[C@@]1(F)[C@H](O)C[C@H](O)[C@@H]1C/C=C\CCCC(=O)OC`: the Potency in the experiment with Cricetinae gen. sp. was 0.28; in the experiment with Gerbillinae, 0.001.

For `CCCCC[C@@H](O)/C=C/[C@@]1(F)[C@H](O)C[C@H](O)[C@@H]1C/C=C\CCCC(=O)OC`, the Potency with Cricetinae gen. sp. was found to be 0.022; in the experiment on Gerbillinae, 0.011.

On to `CCCCC[C@H](O)/C=C/[C@@H]1[C@@H](C/C=C\CCCC(=O)O)[C@@H](O)C[C@H]1O` [DINOPROST], for which the Potency with Cricetinae gen. sp. and in the experiment with Gerbillinae was 1 each time.
